Patent publication US4788306A, “Fluorooxirane carboxylates as hypoglycemic agents” (American Home Products Corporation, priority 1987, dated 1988)
Where a name gives a salt, the structure may show the parent alone. Read-outs that look alike come from different tables or passages of the source. Values belong to the compound of their own block, whether it stands above or below them.

Legend:
[1] = molecular target: T1, carnitine palmitoyl transferase in liver mitochondria (Rattus norvegicus, UniProt P32198); assay: Inhibition of carnitine palmitoyl transferase activity in liver mitochondria; type: biochemical; settings: for inhibition at 0.05 µM / inhibition at 0.1 µM / inhibition at 0.5 µM / inhibition at 1 µM / inhibition at 2 µM / inhibition at 5 µM / inhibition at 10 µM / inhibition at 50 µM: read-out: % Inhibition ± SEM, liver; for inhibition at 0.1 µM: 0.10 μM; for inhibition at 0.5 µM: 0.50 μM
T1 construct: from tissue; host or cells: rat liver mitochondria
T1 sequence (P32198 1-773): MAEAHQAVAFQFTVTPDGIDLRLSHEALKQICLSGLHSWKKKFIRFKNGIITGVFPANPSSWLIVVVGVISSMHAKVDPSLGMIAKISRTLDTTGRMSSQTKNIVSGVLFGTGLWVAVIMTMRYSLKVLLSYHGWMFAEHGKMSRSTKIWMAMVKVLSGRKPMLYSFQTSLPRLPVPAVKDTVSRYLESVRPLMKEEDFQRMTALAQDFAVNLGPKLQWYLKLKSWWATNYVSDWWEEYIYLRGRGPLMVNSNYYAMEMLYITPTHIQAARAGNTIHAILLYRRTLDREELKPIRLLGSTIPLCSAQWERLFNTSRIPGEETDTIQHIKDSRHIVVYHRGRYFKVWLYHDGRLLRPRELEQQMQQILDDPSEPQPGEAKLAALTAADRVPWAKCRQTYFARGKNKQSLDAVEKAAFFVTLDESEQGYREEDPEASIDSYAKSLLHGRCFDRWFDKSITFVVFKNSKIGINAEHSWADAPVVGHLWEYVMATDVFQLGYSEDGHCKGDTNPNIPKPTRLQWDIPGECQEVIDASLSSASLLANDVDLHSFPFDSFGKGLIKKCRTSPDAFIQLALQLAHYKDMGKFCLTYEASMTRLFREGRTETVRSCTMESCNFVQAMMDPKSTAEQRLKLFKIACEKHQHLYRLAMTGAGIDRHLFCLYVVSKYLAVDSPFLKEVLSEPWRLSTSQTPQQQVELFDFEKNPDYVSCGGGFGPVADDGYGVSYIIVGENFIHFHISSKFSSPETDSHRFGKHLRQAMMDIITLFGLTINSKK
Protocol: (§1) The following assay measures the ability of the compounds of the invention to inhibit the activity of carnitine palmitoyl transferase in liver and heart mitochondria.
(§2) According to this procedure, the following steps are carried out:
(§3) (1) Isolation of Mitochondria
(§4) (a) liver mitochondria: 5 g of liver from a 300 g rat is minced, homogenized with 40 ml (30 ml for heart mitochondria) of 0.25M sucrose, 10 mM Tris and 1 mM EDTA, pH 7.4 and centrifuged at 600 xg for 15 minutes. The decanted supernatant is centrifuged at 7,900 xg for 15 minutes. The resultant pellet is resuspended in 20 ml total (16 ml total for the heart mitochondria) of sucrose buffer and centrifuged 7,900 xg for 15 minutes. The pellet is then resuspended in 30 ml total (11 ml for heart mitochondria) of 0.15M KCl, 5 mM Tris.Cl, pH 7.4 and this is used as the enzyme source.
(§5) To 28 3 ml glass test tubes is added 350 μl of the following mixture:
(§6) 81 mg of FFA free albumin
(§7) 1.5 ml of 0.5 mM palmitoyl CoA
(§8) Then there are added to these test tubes 50 μl of water, 50 μl of 10 mM carnitine and 0.25 μCi^3 H-carnitine, and the tubes are placed in a 30° C. water bath.
(§9) (3) Mitochondrial Suspensions
(§10) Twelve plastic incubation tubes are prepared by adding the following to the tubes:
(§11) To each of the tubes, except 1 and 3, are added 30 μl of 200 mM ATP, 20 μl of 333 mM MgCl2 and 50 μl of 1.5 mg/ml CoA. 800 μl of mitochondria from step (1) above are added to each tube, and the tubes are incubated at room temperature for 20 minutes. The tubes are centrifuged at 7,900 xg for 3 minutes and the resultant pellet is resuspended in 1 ml chilled 150 mM KCl, 5 mM TRIS, pH 7.4.
(§12) 50 μl of mitochondrial suspension from step (3) above is added to the 28 tubes from step (2) as follows: (at 15 second intervals):
(§13) The tubes are incubated for 5 minutes at 30° C. and then there is added to each tube, at 15-second intervals, 50 μl of concentrated HCl, 1.45 ml water and 1 ml of n-butanol. The tubes are mixed, chilled in ice for 20 minutes and then centrifuged for 10 minutes at 2500 rpm to clarify the layers. Thereafter, 500 μl of the upper butanol layer of each tube is pipetted into 100 μl of water and 500 μl butanol saturated water, the tubes are mixed and chilled in ice for 20 minutes and centrifuged again for 10 minutes at 2500 rpm. 200 μl of the butanol layer of each tube is pipetted into a scintillation vial to which is added 10 ml of Aquasol, and the samples are counted in a Packard Tri-Carb Scintillation Counter.
(§14) The results are used to calculated the percentage of inhibition of carnitine palmitoyl transferase by the compounds tested.
When tested in the above assay using liver mitochondria alone, other compounds of the invention give the following results.

[2] = molecular target: T2, carnitine palmitoyl transferase in heart mitochondria (Rattus norvegicus, UniProt Q63704); assay: Inhibition of carnitine palmitoyl transferase activity in heart mitochondria; type: biochemical; settings: for inhibition at 0.1 µM: 0.10 μM; for inhibition at 0.5 µM: 0.50 μM
T2 construct: to obtain a heart mitochondria fraction; from tissue; host or cells: rat heart mitochondria
T2 sequence (Q63704 1-772): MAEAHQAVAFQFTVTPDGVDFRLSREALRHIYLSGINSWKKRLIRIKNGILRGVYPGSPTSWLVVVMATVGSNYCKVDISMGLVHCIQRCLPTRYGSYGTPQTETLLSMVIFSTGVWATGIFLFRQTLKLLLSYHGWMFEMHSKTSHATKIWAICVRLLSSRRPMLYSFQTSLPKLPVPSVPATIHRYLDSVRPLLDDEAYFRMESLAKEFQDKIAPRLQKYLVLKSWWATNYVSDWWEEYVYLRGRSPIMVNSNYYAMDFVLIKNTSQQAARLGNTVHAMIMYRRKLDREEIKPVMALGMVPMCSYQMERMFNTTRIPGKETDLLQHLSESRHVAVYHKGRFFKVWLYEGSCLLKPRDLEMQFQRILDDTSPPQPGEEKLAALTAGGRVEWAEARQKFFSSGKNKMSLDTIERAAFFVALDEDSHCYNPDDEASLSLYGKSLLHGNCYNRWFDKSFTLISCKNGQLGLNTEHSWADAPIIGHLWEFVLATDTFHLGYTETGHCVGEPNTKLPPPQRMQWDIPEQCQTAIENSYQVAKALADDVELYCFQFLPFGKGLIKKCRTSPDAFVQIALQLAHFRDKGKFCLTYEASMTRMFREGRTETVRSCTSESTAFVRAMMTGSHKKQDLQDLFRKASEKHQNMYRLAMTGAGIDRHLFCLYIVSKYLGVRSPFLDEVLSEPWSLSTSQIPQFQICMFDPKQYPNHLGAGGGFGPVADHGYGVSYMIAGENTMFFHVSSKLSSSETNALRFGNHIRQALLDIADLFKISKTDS
Protocol: as §1, §2, §3, §4
(b) heart mitochondria: four rat hearts are processed as described in step (a) above to obtain a heart mitochondria fraction.
as §5, §6, §7, §8, §9, §10, §11, §12, §13, §14

[3] = Bachmann et al. 1984, Lee et al. 1982 and 1985; cited from earlier work
[4] = Table 2 (Example 10), liver mitochondria alone, read-out: % Inhibition of Hepatic CPTase, IC50
[5] = Table 1, liver mitochondria, ± SEM, read-out: IC50, liver
[6] = read-out: % Inhibition ± SEM, heart
[7] = 50.0 μM, read-out: % Inhibition ± SEM, heart
[8] = Example 9, second (untitled) table, liver mitochondria, read-out: Inhibition of Hepatic CPTase, IC50
[9] = at 50 μM, Example 9, second (untitled) table, read-out: % Maximal Inhibition of Cardiac CTPase at 50 μM

- IC50 [1, 4]: 850 nM
SMILES: COC(=O)C1(C(F)CCCCCOc2ccc(Cl)cc2)CO1 (single isomer, unassigned) [3 (isomer A), 2-[6-(4-chlorophenoxy)-1-fluorohexyl]-2-oxiranecarboxylic acid methyl ester]

- IC50 [1, 4]: 1750 nM
SMILES: COC(=O)C1(C(F)CCCCCOc2ccc(Cl)cc2)CO1 (single isomer, unassigned) [3 (isomer B), 2-[6-(4-Chlorophenoxy)-1-fluorohexyl]-2-oxiranecarboxylic acid methyl ester]

- IC50 [1, 4]: 1080 nM
SMILES: COC(=O)C1(C(F)CCCCc2ccccc2)CO1 (single isomer, unassigned) [Example 1 (isomer A), 2-(1-Fluoro-5-phenylpentyl)-2-oxiranecarboxylic acid methyl ester]

- inhibition at 0.05 µM [1]: 5 ± 3%
- inhibition at 0.1 µM [1]: 11 ± 5%
- inhibition at 0.5 µM [1]: 23 ± 7%
- inhibition at 1 µM [1]: 61 ± 9%
- inhibition at 2 µM [1]: 78 ± 7%
- inhibition at 5 µM [1]: 79 ± 8%
- inhibition at 10 µM [1]: 80 ± 9%
- inhibition at 50 µM [1]: 82 ± 10%
- IC50 [1, 5]: 970 ± 180 nM
- IC50 [1, 4]: 970 nM
- inhibition at 0.05 µM [2, 6]: 6 ± 5%
- inhibition at 0.1 µM [2, 6]: 17 ± 5%
- inhibition at 0.5 µM [2, 6]: 18 ± 4%
- inhibition at 1 µM [2, 6]: 34 ± 3%
- inhibition at 2 µM [2, 6]: 35 ± 3%
- inhibition at 5 µM [2, 6]: 40 ± 4%
- inhibition at 10 µM [2, 6]: 50 ± 2%
- inhibition at 50 µM [2, 7]: 52 ± 4%
SMILES: COC(=O)C1(C(F)CCCCOc2ccc(Cl)cc2)CO1 (single isomer, unassigned) [Example 2 (isomer A), 2-[5-(4-Chlorophenoxy)-1-fluoropentyl]-2-oxiranecarboxylic acid methyl ester]

- IC50 [1, 4]: 500 nM
SMILES: O=C(O)C1(C(F)CCCCOc2ccc(Cl)cc2)CO1 (single isomer, unassigned) [Example 4, 2-[5-(4-Chlorophenoxy)-1-fluoropentyl]-2-oxiranecarboxylic acid sodium salt]

- IC50 [1, 4]: 520 nM
SMILES: O=C(O)C1(C(F)CCCCCOc2ccc(Cl)cc2)CO1 (single isomer, unassigned) [Example 5, 2-[6-(4-Chlorophenoxy)-1-fluorohexyl]-2-oxiranecarboxylic acid sodium salt]

- inhibition at 0.05 µM [1]: 9 ± 7%
- inhibition at 0.1 µM [1]: 11 ± 6%
- inhibition at 0.5 µM [1]: 60 ± 7%
- inhibition at 1 µM [1]: 79 ± 2%
- inhibition at 2 µM [1]: 82 ± 2%
- inhibition at 5 µM [1]: 86 ± 3%
- inhibition at 10 µM [1]: 83 ± 3%
- inhibition at 50 µM [1]: 85 ± 2%
- IC50 [1, 8]: 310 nM
- IC50 [1, 5]: 330 ± 40 nM
- inhibition at 0.05 µM [2, 6]: 5 ± 6%
- inhibition at 0.1 µM [2, 6]: 8 ± 7%
- inhibition at 0.5 µM [2, 6]: 36 ± 10%
- inhibition at 1 µM [2, 6]: 38 ± 15%
- inhibition at 2 µM [2, 6]: 51 ± 15%
- inhibition at 5 µM [2, 6]: 68 ± 11%
- inhibition at 10 µM [2, 6]: 81 ± 1%
- inhibition at 50 µM [2, 7]: 84 ± 1%
- IC50 ([2]; Table 1, heart mitochondria, ± SEM): 250 nM
- inhibition at 50 µM [2, 9]: 85 ± 2%
SMILES: CCOC(=O)C1(CCCCCCOc2ccc(Cl)cc2)CO1 (stereo not drawn) [Compound A, 2-[6-(4-chlorophenoxy)hexyl]oxirane-2-carboxylic acid ethyl ester, reference compound]

- IC50 [1, 8]: 350 nM
- inhibition at 50 µM [2, 9]: 26 ± 4%
SMILES: COC(=O)C1(C(F)(F)CCCCCOc2ccc(Cl)cc2)CO1 (stereo not drawn) [Example 7 (gem-difluoro compound), 2-[6-(4-Chlorophenoxy)-1,1-difluorohexyl]-2-oxiranecarboxylic acid methyl ester]

- IC50 [1, 8]: 250 nM
- inhibition at 50 µM [2, 9]: 24 ± 6%
SMILES: O=C(O)C1(C(F)(F)CCCCCOc2ccc(Cl)cc2)CO1 (stereo not drawn) [Example 8, 2-[6-(4-Chlorophenoxy)-1,1-difluorohexyl]-2-oxiranecarboxylic acid sodium salt]

SMILES: CCCCCCCCCCCCCCC1(C(=O)OC)CO1 (stereo not drawn) [methyl ester of 2-tetradecylglycidate]
- cardiac effects from chronic administration, in words [3]: adverse cardiac effects
